system: rabbit skeletal myofibrils (fast skeletal myofibrils); assay: Activation of fast skeletal myofibrils (PUMA assay, PK/LDH-coupled ATPase at pCa25); assay type: biochemical; conditions: AC1.4 determined according to the procedure of Example 39; reported as class symbols
In short: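 ATPase activity of Triton-washed rabbit skeletal myofibrils, roughly 90% fast fibres, tracked by NADH loss at 340 nm through a PK/LDH-coupled ADP-regenerating system. Calcium set to 25% of maximal activity (pCa25), in PIPES 12 mM pH 6.8 with 2 mM MgCl2 and 1 mM DTT; AC1.4 reported.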

Mean AC1.4, B (B=1-10 uM):
N#Cc1ccc(C2(CNc3ccc(-c4ccc5[nH]ncc5c4)nn3)CCC2)nc1, CC(C)(CNc1ccc(-c2ccc3[nH]nc(N)c3c2)nn1)c1cccc(O)c1, COc1cccnc1C1(CNc2ccc(-c3ccc4[nH]ncc4c3)nn2)CCC1 [(6-(1H-indazol-5-yl)pyridazin-3-yl){[(3-methoxy(2-pyridyl))cyclobutyl]methyl}amine], CC(C)(CNc1ccc(-c2cccc(C(N)=O)c2)nn1)c1ncccc1F [3-(6-{[2-(3-fluoro(2-pyridyl))-2-methylpropyl]amino}pyridazin-3-yl)benzamide], CC(C)(CNc1ccc(-c2ccc3[nH]nc(N)c3c2)nn1)c1ccc(CCO)cc1

Mean AC1.4, D (D=>20 uM):
NC(=O)c1cccc(-c2ccc(N[C@@H]3C[C@H]3c3ccccc3)nn2)c1, Oc1ccnc(C2(CNc3ccc(-c4ccc5cn[nH]c5c4)nn3)CCC2)c1, CC(C)(C)OC(=O)N1CCN(C(=O)c2ccc(NCC(C)(C)c3ccc(F)cc3)nn2)CC1 [tert-butyl 4-[(6-{[2-(4-fluorophenyl)-2-methylpropyl]amino}pyridazin-3-yl)carbonyl]piperazinecarboxylate], CC1(C)CN(c2ccc(-c3cccc(C(N)=O)c3)nn2)c2ccccc21 [3-[6-(3,3-dimethylindolinyl)pyridazin-3-yl]benzamide], CC(C)(CNc1ccc(-c2cccc(C#N)c2)nn1)OCc1ccccc1, CC(C)(C)OC(=O)N(CC(C)(C)c1ncccc1F)c1ccc(-c2cccc(C(N)=O)c2)nn1

Mean AC1.4, A (A=<1 uM):
CC(C)(CNc1ccc(-c2ccc3[nH]nc(C(N)=O)c3c2)nn1)c1ccc(F)cc1 [5-(6-{[2-(4-fluorophenyl)-2-methylpropyl]amino}pyridazin-3-yl)-1H-indazole-3-carboxamide], Nc1n[nH]c2ccc(-c3ccc(NCC4(c5ccccc5)CCC4)nn3)cc12, CC(C)(CNc1ccc(-c2cccc(C(N)=O)c2)nn1)c1ccccc1F [3-(6-{[2-(2-fluorophenyl)-2-methylpropyl]amino}pyridazin-3-yl)benzamide]

same assay, conditions: median AC1.4 class, procedure of Example 39

Mean AC1.4, A (A=<1 uM):
O=C(NCc1cnc(-c2ccc(NCC3(c4ncccc4F)CCC3)nn2)s1)[C@@H]1CCCN1 [((2S)pyrrolidin-2-yl)-N-({2-[6-({[(3-fluoro(2-pyridyl))cyclobutyl]methyl}ami-no)pyridazin-3-yl](1,3-thiazol-5-yl)}methyl)carboxamide], COc1cccc(C2(Nc3ccc(-c4cc(C(N)=O)ccc4F)nn3)CCC2)n1, O=C1NC[C@@H](C(=O)NCc2cnc(-c3ccc(NCC4(c5ncccc5F)CCC4)nn3)s2)N1 [((4S)-2-oxoimidazolidin-4-yl)-N-({2-[6-({[(3-fluoro(2-pyridyl))cyclobutyl]methyl}ami-no)pyridazin-3-yl](1,3-thiazol-5-yl)}methyl)carboxamide], O=c1[nH][nH]c2ccc(-c3ccc(NCC4(c5ncccc5F)CCC4)nn3)cc12, NC1(C(=O)NCc2cnc(-c3ccc(NCC4(c5ncccc5F)CCC4)nn3)s2)CC1 [(aminocyclopropyl)-N-({2-[6-({[(3-fluoro(2-pyridyl))cyclobutyl]methyl}ami-no)pyridazin-3-yl](1,3-thiazol-5-yl)}methyl)carboxamide], O=C(N[C@@H]1CCNC1)c1cnc(-c2ccc(NCC3(c4ncccc4F)CCC3)nn2)s1 [N-((3R)pyrrolidin-3-yl){2-[6-({[(3-fluoro(2-pyridyl))cyclobutyl]methyl}ami-no)pyridazin-3-yl](1,3-thiazol-5-yl)}carboxamide], O=c1[nH]nc(-c2ccc(F)c(-c3ccc(NCC4(c5ncccc5F)CCC4)nn3)c2)[nH]1 [3-{4-fluoro-3-[6-({[(3-fluoro(2-pyridyl))cyclobutyl]methyl}ami-no)pyridazin-3-yl]phenyl}-1,2,4-triazolin-5-one], COc1ncccc1-c1ccc(NC2(c3ccc(F)cc3)CCC2)nn1 [[(4-fluorophenyl)cyclobutyl][6-(2-methoxy(3-pyridyl))pyridazin-3-yl]amine]

Mean AC1.4, C (C=10-20 uM):
NCc1ccc(F)cc1-c1ccc(NCC2(c3ncccc3F)CCC2)nn1 [{6-[2-(aminomethyl)-5-fluorophenyl]pyridazin-3-yl} {[(3-fluoro(2-pyridyl))cyclobutyl]methyl}amine], COC(=O)c1ncccc1-c1ccc(NCC2(c3ncccc3F)CCC2)nn1

Mean AC1.4, B (B=1-10 uM):
NC(=O)c1cc(-c2ccc(NCC3(c4ncccc4F)CCC3)nn2)ncn1 [6-[6-({[(3-fluoro-2-pyridyl)cyclobutyl]methyl}ami-no)pyridazin-3-yl]pyrimidine-4-carboxamide], NC(CNC(=O)c1cnc(-c2ccc(NCC3(c4ncccc4F)CCC3)nn2)s1)C(F)(F)F (stereo not shown) [N-(2-amino-3,3,3-trifluoropropyl){2-[6-({[(3-fluoro(2-pyridyl))cyclobutyl]methyl}ami-no)pyridazin-3-yl](1,3-thiazol-5-yl)}carboxamide], NC(=O)c1cnc(-c2ccc(NC3(c4ncccc4F)CCC3)nn2)s1 [2-(6-{[(3-fluoro-2-pyridyl)cyclobutyl]amino}pyr-idazin-3-yl)-1,3-thiazole-5-carboxamide], COc1cccc(C2(Nc3ccc(-c4cccc(NS(C)(=O)=O)c4)nn3)CCC2)n1, O=C(Nc1ccn[nH]1)c1ccc(NCC2(c3ncccc3F)CCC2)nn1 [[6-({[(3-fluoro(2-pyridyl))cyclobutyl]methyl}ami-no)pyridazin-3-yl]-N-pyrazol-5-ylcarboxamide]

Mean AC1.4, D (D=>20 uM):
COc1ccc(-c2ccc(NCC3(c4ncccc4F)CCC3)nn2)cc1C(=O)O, CC(C)(C)OC(=O)N1CCN(c2ncc(-c3ccc(NCC4(c5ncccc5F)CCC4)nn3)cn2)CC1, NC(=O)c1ccc(F)c(-c2ccc(NC3(c4cccc(C(N)=O)n4)CCC3)nn2)c1 [6-({[6-(3-carbamoyl-6-fluorophenyl)pyridazin-3-yl]amino}cyclobutyl)pyridine-2-carboxamide], NC(=O)CNC(=O)c1ccc(NCC2(c3ncccc3F)CCC2)nn1 [N-(carbamoylmethyl)[6-({[(3-fluoro(2-pyridyl))cyclobutyl]methyl}ami-no)pyridazin-3-yl]carboxamide], CCOC(=O)/C=C/c1ccc(NCC2(c3ncccc3F)CCC2)nn1

same assay, conditions: median AC1.4 reported as class; procedure of Example 39

Mean AC1.4, C (C=10-20 uM):
O=C(NCc1cccnc1)c1ccc(NCC2(c3ncccc3F)CCC2)nn1 [[6-({[(3-fluoro(2-pyridyl))cyclobutyl]methyl}ami-no)pyridazin-3-yl]-N-(3-pyridylmethyl)carboxamide], CCOC(=O)Cc1csc(-c2ccc(NCC3(c4ncccc4F)CCC3)nn2)n1 [ethyl 2-{2-[6-({[(3-fluoro-2-pyridyl)cyclobutyl]methyl}ami-no)pyridazin-3-yl]-1,3-thiazol-4-yl}acetate]

Mean AC1.4, A (A=<1 uM):
C[C@H](N)C(=O)OCC(=O)NCc1cnc(-c2ccc(NCC3(c4ncccc4F)CCC3)nn2)s1 [[N-({2-[6-({[(3-fluoro-2-pyridyl)cyclobutyl]methyl}ami-no)pyridazin-3-yl]-1,3-thiazol-5-yl}methyl)carbamoyl]methyl (2S)-2-aminopropanoate], Nc1ccc(-c2ccc(NC[C@]3(c4ncccc4F)C[C@H](F)C3)nn2)cn1 [[6-(6-amino(3-pyridyl))pyridazin-3-yl]{[3-fluoro-1-(3-fluoro(2-pyridyl))cyclobutyl]methyl}amine], NC(=O)c1ccc(F)c(-c2ccc(NCC3(c4ncccc4F)CCC3)nn2)c1O [4-fluoro-3-[6-({[(3-fluoro(2-pyridyl))cyclobutyl]methyl}ami-no)pyridazin-3-yl]-2-hydroxybenzamide]

Mean AC1.4, B (B=1-10 uM):
O=C(NC(CO)CO)c1cccc(-c2ccc(NC[C@]3(c4ncccc4F)C[C@H](F)C3)nn2)c1 [{3-[6-({[3-fluoro-1-(3-fluoro(2-pyridyl))cyclobutyl]methyl}ami-no)pyridazin-3-yl]phenyl}-N-[2-hydroxy-1-(hydroxymethyl)ethyl]carboxamide], Cc1cc(NCC2(c3ncccc3F)CCC2)nnc1-c1ncc(CC(=O)O)s1 [2-{2-[6-({[(3-fluoro(2-pyridyl))cyclobutyl]methyl}amino)-4-methylpyridazin-3-yl]-1,3-thiazol-5-yl}acetic acid], CN(C)C(=O)Cc1cnc(-c2ccc(NCC3(c4ncccc4F)CCC3)nn2)s1 [2-{2-[6-({[(3-fluoro(2-pyridyl))cyclobutyl]methyl}ami-no)pyridazin-3-yl](1,3-thiazol-5-yl)}-N,N-dimethylacetamide], O=C(NCC(F)F)c1ccc(F)c(-c2ccc(NC[C@]3(c4ncccc4F)C[C@H](F)C3)nn2)c1 [N-(2,2-difluoroethyl){4-fluoro-3-[6-({[3-fluoro-1-(3-fluoro(2-pyridyl))cyclobutyl]methyl}ami-no)pyridazin-3-yl]phenyl}carboxamide]

From patent US10076519B2 (CYTOKINETICS, INC., priority 2010, dated 2018)
